Experimental data: ChEMBL document CHEMBL4177650, “Synthesis and biological evolution of hydrazones derived from 4-(trifluoromethyl)benzohydrazide” (Bioorg Med Chem Lett, 2017)
In brackets after ≈: the same amount, converted by molar mass. Activity calls are given as the source filed them. The rule behind the calls is not given here.

Tests used:
[1] = Selectivity index, ratio of IC50 for human HepG2 cells to MIC for gram-positive Staphylococcus aureus CCM 4516/08; type: toxicity; conditions: read-out: Selectivity Index
Staphylococcus aureus [2] = assay: Antibacterial activity against gram-positive methicillin-resistant Staphylococcus aureus H 5996/08 after 24 hrs by microdilution broth method; type: functional; conditions: H 5996/08, 24 h
Lichtheimia corymbifera = assay: Antifungal activity against Absidia corymbifera 272 after 24 to 48 hrs by microdilution broth method; type: functional, organism-based
Pichia kudriavzevii [3] = assay: Antifungal activity against Candida krusei E28 after 48 hrs by microdilution broth method; type: functional; conditions: E28, 48 h
Mycobacterium kansasii [4] = assay: Antimycobacterial activity against Mycobacterium kansasii 6509/80 after 14 days by micromethod; type: functional; conditions: 6509/80, 336 h
Candida tropicalis [5] = assay: Antifungal activity against Candida tropicalis 156 after 48 hrs by microdilution broth method; type: functional; conditions: Candida tropicalis, 156, 48 h
Mycobacterium kansasii [6] = assay: Antimycobacterial activity against Mycobacterium kansasii 6509/96 after 21 days by micromethod; type: functional; conditions: 6509/96, 504 h
Staphylococcus aureus [7] = assay: Antibacterial activity against gram-positive Staphylococcus aureus CCM 4516/08 after 24 hrs by microdilution broth method; type: functional; conditions: CCM 4516/08, 24 h
Staphylococcus aureus [8] = assay: Antibacterial activity against gram-positive Staphylococcus aureus CCM 4516/08 after 48 hrs by microdilution broth method; type: functional; conditions: CCM 4516/08, 48 h
[9] = Selectivity index, ratio of IC50 for human HepG2 cells to MIC for Mycobacterium avium 330/88; type: toxicity; conditions: read-out: Selectivity Index
[10] = Cytotoxicity against mouse bone marrow macrophages after overnight incubation by MTT assay; conditions: BMDM
Enterococcus faecalis [11] = assay: Antibacterial activity against gram-positive Enterococcus faecalis J 14365/08 after 24 hrs by microdilution broth method; type: functional; conditions: J 14365/08, 24 h
Mycobacterium kansasii [12] = assay: Antimycobacterial activity against Mycobacterium kansasii 6509/80 after 21 days by micromethod; type: functional; conditions: 6509/80, 504 h
[13] = tested on: Staphylococcus epidermidis; assay: Antibacterial activity against gram-positive Staphylococcus epidermidis H 6966/08 after 24 hrs by microdilution broth method; type: functional; conditions: H 6966/08, 24 h
Nakaseomyces glabratus [14] = assay: Antifungal activity against Candida glabrata 20/I after 24 hrs by microdilution broth method; type: functional
Mycobacterium kansasii [15] = assay: Antimycobacterial activity against Mycobacterium kansasii 6509/96 after 14 days by micromethod; type: functional; conditions: 6509/96, 336 h
Mycobacterium avium [16] = assay: Antimycobacterial activity against Mycobacterium avium 330/88 after 14 days by micromethod; type: functional; conditions: 330/88, 336 h
Aspergillus fumigatus = assay: Antifungal activity against Aspergillus fumigatus 231 after 24 to 48 hrs by microdilution broth method; type: functional, organism-based
[17] = tested on: Mycobacterium tuberculosis; assay: Antimycobacterial activity against Mycobacterium tuberculosis H37Rv 331/88 after 14 days by micromethod; type: functional; conditions: H37Rv 331/88, 336 h
[18] = Selectivity index, ratio of IC50 for human HepG2 cells to MIC for Mycobacterium kansasii 6509/96; type: toxicity; conditions: read-out: Selectivity Index
Staphylococcus aureus [19] = assay: Antibacterial activity against gram-positive methicillin-resistant Staphylococcus aureus H 5996/08 after 48 hrs by microdilution broth method; type: functional; conditions: H 5996/08, 48 h
[20] = tested on: Trichophyton mentagrophytes; assay: Antifungal activity against Trichophyton mentagrophytes 445 after 72 hrs by microdilution broth method; type: functional; conditions: Trichophyton mentagrophytes, 445, 72 h
[21] = tested on: Mycobacterium tuberculosis; assay: Antimycobacterial activity against Mycobacterium tuberculosis H37Rv 331/88 after 21 days by micromethod; type: functional; conditions: H37Rv 331/88, 504 h
Escherichia coli [22] = assay: Antibacterial activity against gram-negative Escherichia coli CCM 4517 after 48 hrs by microdilution broth method; type: functional; conditions: CCM 4517, 48 h
[23] = tested on: Trichophyton mentagrophytes; assay: Antifungal activity against Trichophyton mentagrophytes 445 after 120 hrs by microdilution broth method; type: functional; conditions: Trichophyton mentagrophytes, 445, 120 h
Mycobacterium avium [24] = assay: Antimycobacterial activity against Mycobacterium avium 330/88 after 21 days by micromethod; type: functional; conditions: 330/88, 504 h
MONO-MAC-6 [25] = assay: Cytotoxicity against human MONO-MAC-6 cells after overnight incubation by MTT assay; type: functional, cell-based
Escherichia coli [26] = assay: Antibacterial activity against gram-negative Escherichia coli CCM 4517 after 24 hrs by microdilution broth method; type: functional; conditions: CCM 4517, 24 h
[27] = Selectivity index, ratio of IC50 for human HepG2 cells to MIC for Mycobacterium tuberculosis H37Rv 331/88; type: toxicity; conditions: read-out: Selectivity Index
[28] = tested on: Staphylococcus epidermidis; assay: Antibacterial activity against gram-positive Staphylococcus epidermidis H 6966/08 after 48 hrs by microdilution broth method; type: functional; conditions: H 6966/08, 48 h
Pseudomonas aeruginosa = assay: Antibacterial activity against gram-negative Pseudomonas aeruginosa CCM 1961 after 48 hrs by microdilution broth method; type: functional, organism-based
Mycobacterium kansasii [29] = assay: Antimycobacterial activity against Mycobacterium kansasii 6509/80 after 7 days by micromethod; type: functional; conditions: 6509/80, 168 h
Klebsiella pneumoniae [30] = assay: Antibacterial activity against extended spectrum beta-lactamase-positive Klebsiella pneumoniae J 14368/08 after 24 to 48 hrs by microdilution broth method; type: functional, organism-based
Nakaseomyces glabratus [31] = assay: Antifungal activity against Candida glabrata 20/I after 48 hrs by microdilution broth method; type: functional
Pichia kudriavzevii [32] = assay: Antifungal activity against Candida krusei E28 after 24 hrs by microdilution broth method; type: functional; conditions: E28, 24 h
HepG2 [33] = assay: Cytostatic activity against human HepG2 cells incubated overnight followed by compound wash measured after 72 hrs by MTT assay; type: ADME, cell-based; conditions: HepG2, 72 h
Mycobacterium kansasii [34] = assay: Antimycobacterial activity against Mycobacterium kansasii 6509/96 after 7 days by micromethod; type: functional; conditions: 6509/96, 168 h
Trichosporon asahii = assay: Antifungal activity against Trichosporon asahii 1188 after 24 to 48 hrs by microdilution broth method; type: functional, organism-based
HepG2 [35] = assay: Cytotoxicity against human HepG2 cells after overnight incubation by MTT assay; type: cell-based
Klebsiella pneumoniae [36] = assay: Antibacterial activity against gram-negative Klebsiella pneumoniae D 11750/08 after 24 to 48 hrs by microdilution broth method; type: functional, organism-based
Candida tropicalis [37] = assay: Antifungal activity against Candida tropicalis 156 after 24 hrs by microdilution broth method; type: functional; conditions: Candida tropicalis, 156, 24 h
[38] = Selectivity index, ratio of IC50 for human HepG2 cells to MIC for Mycobacterium kansasii 6509/80; type: toxicity; conditions: read-out: Selectivity Index
Candida albicans = assay: Antifungal activity against Candida albicans ATCC 44859 after 24 to 48 hrs by microdilution broth method; type: functional, organism-based
Enterococcus faecalis [39] = assay: Antibacterial activity against gram-positive Enterococcus faecalis J 14365/08 after 48 hrs by microdilution broth method; type: functional; conditions: J 14365/08, 48 h
MONO-MAC-6 [40] = assay: Cytostatic activity against human MONO-MAC-6 cells incubated overnight followed by compound wash measured after 72 hrs by MTT assay; type: ADME, cell-based; conditions: MONO-MAC-6, 72 h

## O=C(N/N=C/c1ccc(Cl)cc1)c1ccc(C(F)(F)F)cc1
[1]
  selectivity ratio: > 1.6
Staphylococcus aureus [2]
  MIC: 62.5 µM (≈ 20.4 µg/mL)
Lichtheimia corymbifera
  Activity: inactive
Pichia kudriavzevii [3]
  MIC: 62.5 µM (≈ 20.4 µg/mL)
Mycobacterium kansasii [4]
  MIC: 16 µM (≈ 5.23 µg/mL)
Candida tropicalis [5]
  MIC: 125 µM (≈ 40.8 µg/mL)
Mycobacterium kansasii [6]
  MIC: 16 µM (≈ 5.23 µg/mL)
Staphylococcus aureus [7]
  MIC: 62.5 µM (≈ 20.4 µg/mL)
Staphylococcus aureus [8]
  MIC: 62.5 µM (≈ 20.4 µg/mL)
[9]
  selectivity ratio: > 6.25
[10]
  IC50: 7.05 µM
Enterococcus faecalis [11]
  MIC: 62.5 µM (≈ 20.4 µg/mL)
Mycobacterium kansasii [12]
  MIC: 16 µM (≈ 5.23 µg/mL)
[13]
  MIC: 31.2 µM (≈ 10.2 µg/mL)
Nakaseomyces glabratus [14]
  MIC: > 125 µM
Mycobacterium kansasii [15]
  MIC: 16 µM (≈ 5.23 µg/mL)
Mycobacterium avium [16]
  MIC: > 125 µM
Aspergillus fumigatus
  Activity: inactive
[17]
  MIC: 16 µM (≈ 5.23 µg/mL)
[18]
  selectivity ratio: > 6.25
Staphylococcus aureus [19]
  MIC: 62.5 µM (≈ 20.4 µg/mL)
[20]
  MIC: 125 µM (≈ 40.8 µg/mL)
[21]
  MIC: 16 µM (≈ 5.23 µg/mL)
Escherichia coli [22]
  MIC: > 125 µM
[23]
  MIC: 125 µM (≈ 40.8 µg/mL)
Mycobacterium avium [24]
  MIC: > 125 µM
MONO-MAC-6 [25]
  IC50: > 100 µM
Escherichia coli [26]
  MIC: > 125 µM
[27]
  selectivity ratio: > 6.25
[28]
  MIC: 62.5 µM (≈ 20.4 µg/mL)
Pseudomonas aeruginosa
  Activity: inactive
Mycobacterium kansasii [29]
  MIC: 16 µM (≈ 5.23 µg/mL)
Klebsiella pneumoniae [30]
  Activity: inactive
Nakaseomyces glabratus [31]
  MIC: > 125 µM
Pichia kudriavzevii [32]
  MIC: 62.5 µM (≈ 20.4 µg/mL)
HepG2 [33]
  IC50: > 100 µM
Mycobacterium kansasii [34]
  MIC: 16 µM (≈ 5.23 µg/mL)
Trichosporon asahii
  Activity: inactive
HepG2 [35]
  IC50: > 100 µM
Klebsiella pneumoniae [36]
  Activity: inactive
Candida tropicalis [37]
  MIC: 125 µM (≈ 40.8 µg/mL)
[38]
  selectivity ratio: > 6.25
Candida albicans
  Activity: inactive
Enterococcus faecalis [39]
  MIC: > 125 µM
MONO-MAC-6 [40]
  IC50: > 100 µM
